As usually defined, the LD50 is the dose expected to kill half of the subjects tested. Higher therefore signals lower toxicity.

Where two headings read alike, the source gives them in different places. Where only a bound is given, the exact number is not on record here.

We go through 4 compounds from patent US4701448A, “Metal salt of organic phosphate and an antihyperlipemic agent containing the same” (Asahi Denka Kogyo Kabushiki Kaisha, priority 1985, dated 1987).

One data set has as its system synthesis of cholesterol. The conditions noted are these: in words; Japanese Patent Application No. 165490/1983, J. Antibiotics 38, 328-332 (1985); cited from earlier work.
In a further data set the test system is mouse. As to the kind of experiment: Acute toxicity, mouse. The data set is classed as in vivo. The source says:
(§1) The acute toxicity of the metal salt of CB3A and of CK3A was examined by orally or peritoneally administrating an aqueous solution or dispersion thereof the results are shown in Table 2.
(§2) a . . . per os (oral administration)
(§3) b . . . intraperitoneal injection

The next data set relates to rat. As to the kind of experiment: Acute toxicity, rat. The data set is classed as in vivo.
From the text: as §1, §2, §3

Data set [1] in a line: Water solubility, hygroscopic property and stability (statements in words). The data set is classed as physicochemical.
Another data set has as its system serum cholesterol. As to the kind of experiment: Serum cholesterol lowering activity, oral, rabbit, 5 successive days. Type of data set: in vivo. The conditions noted are these: two times a day, 5 days. As for the experimental part: (1) Serum cholesterol lowering activity the metal salt of organic phosphate according to the present invention was orally administered to a rabbit (body weight of about 3 Kg) two times a day (at 9:00 a.m. and 4:00 p.m.) for 5 successive days. After 5 days, blood was sampled and the total cholesterol value in serum was measured in a conventional manner.

Data set [2] can be described thus: Absorbability and effect (statement in words).
Another data set can be described thus: Acidity (pKa) of CB3A. The data set is classed as physicochemical.
Data set [3] can be described thus: Stability, 5 weeks at 45° C. and humidity of 80% (HPLC remaining rate). The data set is classed as physicochemical. The conditions noted are these: after 5 weeks, humidity of 80%, 50400 min. As for the experimental part:
One gram each of CB3A, CK3A and various metal salts thereof was placed in a beaker and the beaker was allowed to stand for 5 weeks in a constant temperature and humidity bath controlled at a temperature of 45° C. and a humidity of 80%. After 5 weeks, a remaining rate of the compound was analyzed quantitatively with a high performance liquid chromatography "Tri rotar" manufactured by Nippon Bunko K. K. (Japan).
A0 = initial amount of the compound prior to standing in the constan
temperature and humidity bath
A1 = final amount of the compound after 5 weeks

As for `CCC(C)C(=O)OC1CCC=C2C=CC(C)C(CCC(CC(O)CC(=O)OC)OP(=O)(O)O)C21` (stereo not shown) [CB3A methyl ester], the “activity of inhibiting the synthesis of cholesterol” value in the data set on synthesis of cholesterol is recorded as “strong activity of inhibiting the synthesis of cholesterol”.

Regarding `CCC(C)C(=O)OC1CCC=C2C=CC(C)C(CCC(CC(O)CC(=O)O)OP(=O)(O)O)C21` (stereo not shown) [CB3A, reference compound], the LD50 in the data set with mouse (intraperitoneal injection) is above 500 mg/kg; in the data set on mouse (per os (oral administration)) it was above 2000 mg/kg; in the data set with rat (intraperitoneal injection) it was above 500 mg/kg; in the data set on rat (per os (oral administration)), above 2000 mg/kg. For the same compound, the stability entry in data set [1] (listed as CB3K) was “unstable”. Also, the “activity of inhibiting the synthesis of cholesterol” value with synthesis of cholesterol was “strong activity of inhibiting the synthesis of cholesterol”. Also, the “Total Serum cholesterol lowering rate” value with serum cholesterol (1.5 mg/kg/day) was found to be 9.4%; in the data set with serum cholesterol (6 mg/kg/day), 23.9%. Besides, the absorbability and effect entry in data set [2] is “unsatisfactory”. Besides, the pKa in the data set “Acidity (pKa) of CB3A” (carboxylic acid group in CB3A molecule, read-out: pKa3) came to 7.1; in the data set “Acidity (pKa) of CB3A” (phosphoric acid group in CB3A molecule, read-out: pKa1) it was 2.2; in the data set “Acidity (pKa) of CB3A” (phosphoric acid group in CB3A molecule, read-out: pKa2), 5. The compound also gave a Remaining rate in data set [3] of 14%.

For the compound `CCC(C)C(=O)OC1CC(C)C=C2C=CC(C)C(CCC(CC(O)CC(=O)OC)OP(=O)(O)O)C21` (stereo not shown) [CK3A methyl ester], in the data set on synthesis of cholesterol, the “activity of inhibiting the synthesis of cholesterol” value was “strong activity of inhibiting the synthesis of cholesterol”.

In the case of `CCC(C)C(=O)OC1CC(C)C=C2C=CC(C)C(CCC(CC(O)CC(=O)O)OP(=O)(O)O)C21` (stereo not shown) [CK3A, reference compound], the LD50 in the data set on mouse (intraperitoneal injection) is recorded as above 500 mg/kg; in the data set with mouse (per os (oral administration)), above 2000 mg/kg; with rat (intraperitoneal injection), above 500 mg/kg; with rat (per os (oral administration)), above 2000 mg/kg. In addition, the stability entry in data set [1] is listed as “unstable”. Further, the “activity of inhibiting the synthesis of cholesterol” value in the data set with synthesis of cholesterol is on record as “strong activity of inhibiting the synthesis of cholesterol”. For the same compound, the figures for the “Total Serum cholesterol lowering rate” value in the data set on serum cholesterol (1.5 mg/kg/day) and with serum cholesterol (6 mg/kg/day) were 9.7% and 24.4%, respectively. In addition, the absorbability and effect entry in data set [2] is on record as “unsatisfactory”. Besides, the Remaining rate in data set [3] was found to be 13%.
